{"source": "paper PMC9882058", "about": "(bioRxiv, 2023)", "molecular_target": "TcdA (Clostridioides difficile, UniProt P16154)", "sequence (P16154 whole entry, looked up)": "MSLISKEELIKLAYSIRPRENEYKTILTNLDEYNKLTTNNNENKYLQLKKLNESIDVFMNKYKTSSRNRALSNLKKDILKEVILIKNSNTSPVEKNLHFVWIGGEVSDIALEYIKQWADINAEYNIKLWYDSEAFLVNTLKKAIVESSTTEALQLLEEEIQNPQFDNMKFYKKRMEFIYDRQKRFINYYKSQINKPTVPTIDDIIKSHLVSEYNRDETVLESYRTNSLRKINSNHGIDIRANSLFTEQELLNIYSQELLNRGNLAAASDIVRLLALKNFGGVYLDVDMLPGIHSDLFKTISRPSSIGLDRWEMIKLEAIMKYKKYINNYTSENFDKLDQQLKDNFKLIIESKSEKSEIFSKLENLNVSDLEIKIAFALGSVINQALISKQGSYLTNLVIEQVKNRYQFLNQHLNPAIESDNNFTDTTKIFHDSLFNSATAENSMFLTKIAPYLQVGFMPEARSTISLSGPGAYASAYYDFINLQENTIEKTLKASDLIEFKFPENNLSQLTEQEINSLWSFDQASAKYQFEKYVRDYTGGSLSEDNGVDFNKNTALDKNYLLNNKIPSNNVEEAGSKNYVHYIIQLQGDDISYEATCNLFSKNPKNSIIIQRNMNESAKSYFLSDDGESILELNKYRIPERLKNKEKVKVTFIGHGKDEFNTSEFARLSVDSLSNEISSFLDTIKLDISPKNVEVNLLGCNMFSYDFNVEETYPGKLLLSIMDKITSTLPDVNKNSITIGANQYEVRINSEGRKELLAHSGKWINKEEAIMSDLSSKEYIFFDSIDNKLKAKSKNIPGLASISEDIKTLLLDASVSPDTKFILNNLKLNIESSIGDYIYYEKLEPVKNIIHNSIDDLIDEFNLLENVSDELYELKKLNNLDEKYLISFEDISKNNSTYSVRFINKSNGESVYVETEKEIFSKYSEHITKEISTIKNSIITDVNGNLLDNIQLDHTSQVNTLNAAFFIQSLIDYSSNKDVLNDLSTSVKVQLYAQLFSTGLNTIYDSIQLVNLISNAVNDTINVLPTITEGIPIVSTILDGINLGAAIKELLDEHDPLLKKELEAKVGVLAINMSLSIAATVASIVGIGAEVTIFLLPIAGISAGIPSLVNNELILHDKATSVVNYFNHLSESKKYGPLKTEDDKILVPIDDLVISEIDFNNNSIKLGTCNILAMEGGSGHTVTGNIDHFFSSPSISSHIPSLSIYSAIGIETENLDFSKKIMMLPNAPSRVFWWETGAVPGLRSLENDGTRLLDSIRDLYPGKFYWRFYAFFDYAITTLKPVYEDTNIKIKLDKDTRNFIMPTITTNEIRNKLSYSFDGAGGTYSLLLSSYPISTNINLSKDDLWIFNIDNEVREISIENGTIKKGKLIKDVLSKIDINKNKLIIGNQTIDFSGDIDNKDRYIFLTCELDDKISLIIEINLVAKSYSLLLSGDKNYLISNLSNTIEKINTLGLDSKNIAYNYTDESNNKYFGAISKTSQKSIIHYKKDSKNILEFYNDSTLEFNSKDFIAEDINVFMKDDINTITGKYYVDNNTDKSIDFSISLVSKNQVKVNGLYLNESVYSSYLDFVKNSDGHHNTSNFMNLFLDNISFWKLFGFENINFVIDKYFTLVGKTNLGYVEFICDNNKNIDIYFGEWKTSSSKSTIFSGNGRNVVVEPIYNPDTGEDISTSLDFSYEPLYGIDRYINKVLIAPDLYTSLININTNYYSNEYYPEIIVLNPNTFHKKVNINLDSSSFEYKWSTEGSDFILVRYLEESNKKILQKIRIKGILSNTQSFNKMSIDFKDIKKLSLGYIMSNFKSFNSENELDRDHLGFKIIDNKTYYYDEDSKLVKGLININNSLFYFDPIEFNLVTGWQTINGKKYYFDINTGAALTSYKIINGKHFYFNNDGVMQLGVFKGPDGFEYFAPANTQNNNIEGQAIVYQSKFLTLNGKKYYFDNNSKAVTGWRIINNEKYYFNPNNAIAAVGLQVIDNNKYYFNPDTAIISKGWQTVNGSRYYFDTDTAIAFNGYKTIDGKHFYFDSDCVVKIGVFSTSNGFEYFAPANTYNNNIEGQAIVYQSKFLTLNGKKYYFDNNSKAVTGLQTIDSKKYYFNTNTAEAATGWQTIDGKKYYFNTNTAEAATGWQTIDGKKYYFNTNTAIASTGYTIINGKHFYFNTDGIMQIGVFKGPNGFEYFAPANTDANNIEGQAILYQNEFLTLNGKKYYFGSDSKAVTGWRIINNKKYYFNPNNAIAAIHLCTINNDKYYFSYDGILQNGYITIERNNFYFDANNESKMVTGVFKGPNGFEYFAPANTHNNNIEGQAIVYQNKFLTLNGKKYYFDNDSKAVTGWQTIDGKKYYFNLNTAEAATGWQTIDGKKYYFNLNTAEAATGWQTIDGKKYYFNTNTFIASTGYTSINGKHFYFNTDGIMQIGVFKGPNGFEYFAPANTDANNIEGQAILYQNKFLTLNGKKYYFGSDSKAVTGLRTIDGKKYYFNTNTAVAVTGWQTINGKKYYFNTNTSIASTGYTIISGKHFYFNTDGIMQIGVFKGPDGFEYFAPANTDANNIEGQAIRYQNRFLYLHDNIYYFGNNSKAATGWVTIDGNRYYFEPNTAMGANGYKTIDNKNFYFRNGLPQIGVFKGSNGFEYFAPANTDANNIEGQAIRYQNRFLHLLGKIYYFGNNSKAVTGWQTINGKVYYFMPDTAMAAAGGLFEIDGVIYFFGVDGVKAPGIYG", "conditions": "peptides on beads; 0.2 µM TcdA-AF594; qualitative", "data": [{"sequence": "EFWMGRHH [SA5]", "values": [{"measurement": "TcdA binding performance in bead-based screen", "value": "performed significantly better than those from Case 3 (SA6, SA7)"}]}, {"sequence": "MFWEHRHR [SA4]", "values": [{"measurement": "TcdA binding performance in bead-based screen", "value": "performed significantly better than those from Case 3 (SA6, SA7)"}]}, {"sequence": "QDWMRRHW [SA2]", "values": [{"measurement": "TcdA binding performance in bead-based screen", "value": "performed significantly better than those from Case 3 (SA6, SA7)"}]}]}
